Test results: US11969433B2, “Compositions and methods for muscle regeneration using prostaglandin E2” (The Board of Trustees of the Leland Stanford Junior …, priority 2016, dated 2024)

Columns and labels:
MuSCs [1] = assay: Young MuSC numbers after acute PGE2 treatment, hydrogel culture (hemocytometer count); assay type: cell-based, mouse; conditions: young MuSCs, acute 1-day exposure, PGE2 10 ng/ml, one week later
Description: (§1) Following isolation, we resuspended MuSCs in myogenic cell culture medium containing DMEM/F10 (50:50), 15% FBS, 2.5 ng ml^−1 fibroblast growth factor-2 (FGF-2 also known as bFGF) and 1% penicillin-streptomycin. We seeded MuSC suspensions at a density of 500 cells per cm^2 surface area. We maintained cell cultures at 37° C. in 5% CO2 and changed medium daily. […]
(§2) To assay proliferation, we used three different assays (hemocytometer, VisionBlue, and EdU). […] For hemocytometer cell number count, we collected cells at indicated timepoints by incubation with 0.5% trypsin in PBS for 5 min at 37° C. and quantified them using a hemocytometer at least 3 times. Additionally, we used the VisionBlue Quick Cell Viability Fluorometric Assay Kit (BioVision, catalog #K303) as a readout for cell growth in culture. Briefly, we incubated MuSCs with 10% VisionBlue in culture medium for 3 h, and measured fluorescence intensity on a fluorescence plate reader (Infinite M1000 PRO, Tecan) at Ex=530-570 nm, Em=590-620 nm. […] We quantified EdU positive cells using the MetaMorph Image Analysis software (Molecular Devices). Data analyses were blinded, where researchers performing cell scoring were unaware of the treatment condition given to sample groups analyzed.

MuSCs [2] = assay: VisionBlue metabolic viability assay; assay type: cell-based, mouse; conditions: PGE2 1-200 ng/ml
Description: To assay proliferation, we used three different assays (hemocytometer, VisionBlue, and EdU). For each, we seeded MuSCs on flat hydrogels (hemocytometer and VisionBlue) or collagen-coated plates (EdU assay) at a density of 500 cells per cm^2 surface area. For hemocytometer cell number count, we collected cells at indicated timepoints by incubation with 0.5% trypsin in PBS for 5 min at 37° C. and quantified them using a hemocytometer at least 3 times. Additionally, we used the VisionBlue Quick Cell Viability Fluorometric Assay Kit (BioVision, catalog #K303) as a readout for cell growth in culture. Briefly, we incubated MuSCs with 10% VisionBlue in culture medium for 3 h, and measured fluorescence intensity on a fluorescence plate reader (Infinite M1000 PRO, Tecan) at Ex=530-570 nm, Em=590-620 nm. We assayed proliferation using the Click-iT EdU Alexa Fluor 555 Imaging kit (Life Technologies). Briefly, we incubated live cells with EdU (20 μM) for 1 hr prior to fixation, and stained nuclei according to the manufacturer's guidelines together with anti-MYOGENIN (Santa Cruz, catalog #sc576, 1:250) to assay differentiation. […] We quantified EdU positive cells using the MetaMorph Image Analysis software (Molecular Devices). Data analyses were blinded, where researchers performing cell scoring were unaware of the treatment condition given to sample groups analyzed.

MuSCs [3] = assay: cAMP activity assay (cAMP-Glo); assay type: cell-based, mouse; conditions: 1 hr PGE2 10 ng/ml
Description: MuSCs were treated with DMSO (vehicle) or PGE2 (10 ng/ml) for 1 h and cyclic AMP levels measured according to the cAMP-Glo Assay protocol optimized by the manufacturer (Promega). Each sample was assayed in triplicate and in two independent experiments.

MuSCs [4] = assay: MuSC proliferation in charcoal stripped serum medium; assay type: cell-based, mouse; conditions: PGE2 10 ng/ml every two days, 7 days
Description: as §1, §2

aged MuSCs = assay: Aged MuSC numbers after acute 24 hr treatment, hydrogel culture; assay type: cell-based, mouse; conditions: 1-day pulse; PGE2 10 ng/ml or SW033291 1 μM; assayed day 7
Description: as §1, §2

MuSCs [5] = assay: MuSC transplantation into injured TA muscle, engraftment by bioluminescence imaging; assay type: in vivo, mouse; conditions: cultured MuSCs, acute 1-day PGE2, 250 cells transplanted day 7 into NOD-SCID mice
gastrocnemius muscles = assay: Specific twitch force after treadmill run to exhaustion, aged mice (Example 2); assay type: in vivo, mouse; conditions: aged mice 18 months, 3 nM PGE2 after each of 10 daily runs, 4 weeks after last run
Description: The aged mice (18 months old) were subject to treadmill run to exhaustion daily for 10 days. The treadmill run was performed using the Exer3/6 (Columbus Instruments). Mice ran on the treadmill at 20 degrees downhill, starting at a speed of 10 meters/min. After 3 min, the speed was increased 1 meter/min to a final speed of 20 meters/min. Exhaustion was defined as the inability of the animal to remain on the treadmill despite electrical prodding. 2 h after each treadmill run, both gastrocnemius muscles of each mouse were injected with either PBS (control group) or 3 nM PGE2 (experimental group). The force measurement was performed 4 weeks after the last treadmill run using a […]-LR force transducer (Aurora Scientific) with a single 0.1 ms pulse at predetermined supramaximal stimulation intensity. The muscle force and synchronization pulses were recorded via a PCI-6251 acquisition card (National Instruments) and analyzed using Matlab. FIGS. 4O-4P show the specific muscle force values that were calculated by normalizing the force measurements with the muscle physiological cross-sectional area. […] Five repetitive measurements were made from each muscle. N=4 for the control group and n=5 for the PGE2 injected group. ** represents a statistical significant value of p<0.005 by 2-tailed Mann Whitney test.

CCCCC[C@H](O)/C=C/[C@H]1[C@H](O)CC(=O)[C@@H]1C/C=C\CCCC(=O)O [PGE2, prostaglandin E2]
increase in the number of MuSCs relative to controls (MuSCs [1]): 6 fold
proliferation measured by VisionBlue (MuSCs [2]): Increase
intracellular cAMP (MuSCs [3]): elevated
proliferation of aged MuSCs in charcoal stripped serum medium (MuSCs [4]; aged MuSCs): rescued
division of growth arrested MuSCs in charcoal stripped serum medium (MuSCs [4]; young MuSCs): divided
proliferation of aged MuSCs (aged MuSCs): increase
young MuSC regenerative capacity assessed by BLI (MuSCs [5]): enhanced by an order of magnitude
specific twitch force of gastrocnemius muscles (gastrocnemius muscles): increase
